# Results as given in publication PMC5218480 (PLoS ONE, 2017).
# System: MV-4-11 cells
# Test: Gene expression microarray analysis (Affymetrix PrimeView) and GSEA
# Type: cell-based, human
# Set-up: RFU PODN (11730768_x_at) / Fold change /veh PODN (11730768_x_at) / RFU LINC00158 (11744669_a_at) / Fold change /veh LINC00158 (11744669_a_at) / RFU DUSP10 (11751237_a_at) / Fold change /veh DUSP10 (11751237_a_at) / RFU ID3 (11757404_x_at) / Fold change /veh ID3 (11757404_x_at) / RFU PLEKHG5 (11737974_s_at) / Fold change /veh PLEKHG5 (11737974_s_at) / RFU LRRC4B (11730491_at) / Fold change /veh LRRC4B (11730491_at) / RFU GIMAP4 (11747438_a_at) / Fold change /veh GIMAP4 (11747438_a_at) / RFU KRT8 (11758183_x_at) / Fold change /veh KRT8 (11758183_x_at) / RFU CNN1 (11734310_a_at) / Fold change /veh CNN1 (11734310_a_at) / RFU VPS37D (11726825_at) / Fold change /veh VPS37D (11726825_at) / RFU C10orf10 (11716522_x_at) / Fold change /veh C10orf10 (11716522_x_at) / RFU KIR2DL2 /// KIR2DL4 /// KIR2DL5A /// KIR2DL5B /// KIR2DS1 /// KIR2DS2 /// KIR2DS3 /// KIR2DS4 /// KIR3DL3 /// KIR3DL3 /// KIR3DS1 (11738374_at) / Fold change /veh KIR2DL2 /// KIR2DL4 /// KIR2DL5A /// KIR2DL5B /// KIR2DS1 /// KIR2DS2 /// KIR2DS3 /// KIR2DS4 /// KIR3DL3 /// KIR3DL3 /// KIR3DS1 (11738374_at) / RFU C1QL1 (11718748_at) / Fold change /veh C1QL1 (11718748_at) / RFU TMPRSS4 (11747572_a_at) / Fold change /veh TMPRSS4 (11747572_a_at) / RFU HAMP (11756126_x_at) / Fold change /veh HAMP (11756126_x_at) / RFU RNFT2 (11725882_a_at) / Fold change /veh RNFT2 (11725882_a_at) / RFU NR4A2 (11747474_a_at) / Fold change /veh NR4A2 (11747474_a_at) / RFU ABCC12 (11746883_a_at) / Fold change /veh ABCC12 (11746883_a_at) / RFU TMEM136 (11760407_x_at) / Fold change /veh TMEM136 (11760407_x_at) / RFU CLDN22 /// WWC2 (11732394_at) / Fold change /veh CLDN22 /// WWC2 (11732394_at) / RFU HLA-DPB1 (11760878_x_at) / Fold change /veh HLA-DPB1 (11760878_x_at) / RFU SPINT1 (11716480_a_at) / Fold change /veh SPINT1 (11716480_a_at) / RFU GAP43 (11754022_s_at) / Fold change /veh GAP43 (11754022_s_at) / RFU A4GNT (11735810_at) / Fold change /veh A4GNT (11735810_at) / RFU PRB3 (11715151_x_at) / Fold change /veh PRB3 (11715151_x_at) / RFU TUBB4B (11761932_at) / Fold change /veh TUBB4B (11761932_at) / RFU CAPN14 (11732068_a_at) / Fold change /veh CAPN14 (11732068_a_at) / RFU TMCC2 (11721928_a_at) / Fold change /veh TMCC2 (11721928_a_at) / RFU IRGQ (11745062_a_at) / Fold change /veh IRGQ (11745062_a_at) / RFU FAM174B (11720279_a_at) / Fold change /veh FAM174B (11720279_a_at) / RFU TMPRSS4 (11748680_a_at) / Fold change /veh TMPRSS4 (11748680_a_at) / RFU FAM212B (11763350_a_at) / Fold change /veh FAM212B (11763350_a_at) / RFU PLEKHG5 (11743358_a_at) / Fold change /veh PLEKHG5 (11743358_a_at) / RFU ZSCAN30 (11745921_a_at) / Fold change /veh ZSCAN30 (11745921_a_at) / RFU CMKLR1 (11741424_a_at) / Fold change /veh CMKLR1 (11741424_a_at) / RFU LOC101060620 /// MAPK8IP1 (11723275_at) / Fold change /veh LOC101060620 /// MAPK8IP1 (11723275_at) / RFU SPTSSB (11747773_x_at) / Fold change /veh SPTSSB (11747773_x_at) / RFU PRSS12 (11739890_at) / Fold change /veh PRSS12 (11739890_at) / RFU BIN1 (11741810_x_at) / Fold change /veh BIN1 (11741810_x_at) / RFU WNT11 (11732464_a_at) / Fold change /veh WNT11 (11732464_a_at) / RFU C10orf10 (11716521_a_at) / Fold change /veh C10orf10 (11716521_a_at) / RFU C5orf56 (11738089_at) / Fold change /veh C5orf56 (11738089_at) / RFU CYB561 (11721691_x_at) / Fold change /veh CYB561 (11721691_x_at) / RFU ANKRD19P (11752326_a_at) / Fold change /veh ANKRD19P (11752326_a_at) / RFU OR2T12 /// OR2T33 /// OR2T8 (11738714_s_at) / Fold change /veh OR2T12 /// OR2T33 /// OR2T8 (11738714_s_at) / RFU VCAN (11748164_a_at) / Fold change /veh VCAN (11748164_a_at) / RFU JSRP1 (11732532_at) / Fold change /veh JSRP1 (11732532_at) / RFU KRTAP10-11 (11738290_x_at) / Fold change /veh KRTAP10-11 (11738290_x_at) / RFU MYO3A (11730013_a_at) / Fold change /veh MYO3A (11730013_a_at) / RFU EBF3 (11725865_a_at) / Fold change /veh EBF3 (11725865_a_at) / RFU CAMK2N1 (11719241_x_at) / Fold change /veh CAMK2N1 (11719241_x_at) / RFU C5orf56 (11738088_a_at) / Fold change /veh C5orf56 (11738088_a_at) / RFU OLFML3 (11715873_a_at) / Fold change /veh OLFML3 (11715873_a_at) / RFU LOC100653217 /// NTM (11731650_a_at) / Fold change /veh LOC100653217 /// NTM (11731650_a_at) / RFU MAPK11 (11762145_a_at) / Fold change /veh MAPK11 (11762145_a_at) / RFU FIZ1 (11724087_x_at) / Fold change /veh FIZ1 (11724087_x_at) / RFU OASL (11726364_x_at) / Fold change /veh OASL (11726364_x_at) / RFU SOX15 (11748057_x_at) / Fold change /veh SOX15 (11748057_x_at) / RFU CD79A (11719716_a_at) / Fold change /veh CD79A (11719716_a_at) / RFU HIST1H1D (11736915_at) / Fold change /veh HIST1H1D (11736915_at) / RFU CASKIN2 (11723855_a_at) / Fold change /veh CASKIN2 (11723855_a_at) / RFU LOC730098 (11760151_x_at) / Fold change /veh LOC730098 (11760151_x_at) / RFU OR4N2 (11742367_at) / Fold change /veh OR4N2 (11742367_at) / RFU PRRT2 (11749266_a_at) / Fold change /veh PRRT2 (11749266_a_at) / RFU SNX32 (11753110_a_at) / Fold change /veh SNX32 (11753110_a_at) / RFU CDHR5 (11726645_a_at) / Fold change /veh CDHR5 (11726645_a_at) / RFU RCAN1 (11760418_a_at) / Fold change /veh RCAN1 (11760418_a_at) / RFU FAM167A (11723789_a_at) / Fold change /veh FAM167A (11723789_a_at) / RFU FAM26E (11764081_at) / Fold change /veh FAM26E (11764081_at) / RFU ISYNA1 (11749810_s_at) / Fold change /veh ISYNA1 (11749810_s_at) / RFU ACY1 (11761880_at) / Fold change /veh ACY1 (11761880_at) / RFU 11764098_at / Fold change /veh 11764098_at / RFU SAMD14 (11745864_x_at) / Fold change /veh SAMD14 (11745864_x_at) / RFU NPB (11741838_a_at) / Fold change /veh NPB (11741838_a_at) / RFU TMPRSS6 (11731388_a_at) / Fold change /veh TMPRSS6 (11731388_a_at) / RFU KRTAP10-2 (11738614_at) / Fold change /veh KRTAP10-2 (11738614_at) / RFU ARHGAP8 /// PRR5-ARHGAP8 (11727945_x_at) / Fold change /veh ARHGAP8 /// PRR5-ARHGAP8 (11727945_x_at) / RFU KRTAP5-7 /// NADSYN1 (11734609_at) / Fold change /veh KRTAP5-7 /// NADSYN1 (11734609_at) / RFU RASL12 (11751679_a_at) / Fold change /veh RASL12 (11751679_a_at) / RFU CDKN2B (11736163_a_at) / Fold change /veh CDKN2B (11736163_a_at) / RFU PRF1 (11729649_at) / Fold change /veh PRF1 (11729649_at) / RFU, ZNF638 /// ZNF638-IT1 / Fold change vs veh, ZNF638 /// ZNF638-IT1 / RFU, PANK3 / Fold change vs veh, PANK3 / RFU, SH3YL1 / Fold change vs veh, SH3YL1 / RFU, ZEB2 / Fold change vs veh, ZEB2 / RFU, NRIP1 / Fold change vs veh, NRIP1 / RFU, PTTG1IP / Fold change vs veh, PTTG1IP / RFU, CAPN2 / Fold change vs veh, CAPN2 / RFU, MED14 / Fold change vs veh, MED14 / RFU, SNORA58 / Fold change vs veh, SNORA58 / RFU, C1orf63 / Fold change vs veh, C1orf63 / RFU, LRRFIP1 / Fold change vs veh, LRRFIP1 / RFU, NDUFAF7 / Fold change vs veh, NDUFAF7 / RFU, SLC12A2 / Fold change vs veh, SLC12A2 / RFU, IBTK / Fold change vs veh, IBTK / RFU, ESF1 / Fold change vs veh, ESF1 / Fold change vs veh, TMEM50B / RFU, TAOK1 / Fold change vs veh, TAOK1 / RFU, ACBD3 / Fold change vs veh, ACBD3 / RFU, TMA16 / Fold change vs veh, TMA16 / RFU, RWDD3 / Fold change vs veh, RWDD3 / RFU, BCAT1 / Fold change vs veh, BCAT1 / RFU, EDEM3 / Fold change vs veh, EDEM3 / RFU, TMEM33 / Fold change vs veh, TMEM33 / RFU, WDR75 / Fold change vs veh, WDR75 / RFU, AHCTF1 / Fold change vs veh, AHCTF1 / RFU, TFRC / Fold change vs veh, TFRC / RFU, ZDHHC17 / Fold change vs veh, ZDHHC17 / RFU, NOM1 / Fold change vs veh, NOM1 / RFU, ARL8B / Fold change vs veh, ARL8B / RFU, ZBTB11 / Fold change vs veh, ZBTB11 / RFU, TAMM41 / Fold change vs veh, TAMM41 / RFU, KIAA1704 /// LOC100996395 / Fold change vs veh, KIAA1704 /// LOC100996395 / RFU, ING1 / Fold change vs veh, ING1 / RFU, TRMT61B / Fold change vs veh, TRMT61B / RFU, FUBP3 / Fold change vs veh, FUBP3 / RFU, TP53 / Fold change vs veh, TP53 / RFU, TNKS2 / Fold change vs veh, TNKS2 / RFU, ZFP14 / Fold change vs veh, ZFP14 / RFU, ACTR2 / Fold change vs veh, ACTR2 / RFU, PPP3R1 / Fold change vs veh, PPP3R1 / RFU, PIK3R1 / Fold change vs veh, PIK3R1 / RFU, HNRNPA1 / Fold change vs veh, HNRNPA1 / RFU, RNF170 / Fold change vs veh, RNF170 / RFU, ZNF28 / Fold change vs veh, ZNF28 / RFU, RNGTT / Fold change vs veh, RNGTT / RFU, OGT / Fold change vs veh, OGT / RFU, BRD1 / Fold change vs veh, BRD1 / RFU, MARS / Fold change vs veh, MARS / RFU, ZNF655 / Fold change vs veh, ZNF655 / RFU, FAHD1 / Fold change vs veh, FAHD1 / RFU, BDP1 / Fold change vs veh, BDP1 / RFU, LRRCC1 / Fold change vs veh, LRRCC1 / RFU, ARID1A / Fold change vs veh, ARID1A / RFU, ZNF146 / Fold change vs veh, ZNF146 / RFU, ZNF330 / Fold change vs veh, ZNF330 / RFU, GPN3 / Fold change vs veh, GPN3 / RFU, C9orf123 / Fold change vs veh, C9orf123 / RFU, N4BP2L2 / Fold change vs veh, N4BP2L2 / RFU, ARFIP1 / Fold change vs veh, ARFIP1 / RFU, FAM179B / Fold change vs veh, FAM179B / RFU, BCL10 / Fold change vs veh, BCL10 / RFU, UHRF1BP1L / Fold change vs veh, UHRF1BP1L / RFU, BET1 / Fold change vs veh, BET1 / RFU, CNOT2 / Fold change vs veh, CNOT2 / RFU, ZNF268 / Fold change vs veh, ZNF268 / Fold change vs veh, ZNF507 / RFU, DGCR2 / Fold change vs veh, DGCR2 / RFU, WDSUB1 / Fold change vs veh, WDSUB1 / Fold change vs veh, HSP90B1 /// MIR3652 / RFU, ADSS / Fold change vs veh, ADSS / RFU, GK / Fold change vs veh, GK / RFU, ZNF148 / Fold change vs veh, ZNF148 / RFU, TAF9 / Fold change vs veh, TAF9 / RFU, SLC1A5 / Fold change vs veh, SLC1A5 / RFU, SLMO2 / Fold change vs veh, SLMO2 / RFU, ABCC4 / Fold change vs veh, ABCC4 / RFU, LOC101060439 /// RAP1B / Fold change vs veh, LOC101060439 /// RAP1B / RFU, RFX7 / Fold change vs veh, RFX7 / RFU, GTPBP10 / Fold change vs veh, GTPBP10 / RFU, CNEP1R1 / Fold change vs veh, CNEP1R1 / RFU, BIVM-ERCC5 /// ERCC5 / Fold change vs veh, BIVM-ERCC5 /// ERCC5 / RFU, ILF3 / Fold change vs veh, ILF3 / RFU 11762660_at / Fold change /veh 11762660_at / RFU VCAN (11757783_s_at) / Fold change /veh VCAN (11757783_s_at) / RFU DDX43 (11728927_at) / Fold change /veh DDX43 (11728927_at) / RFU KRT8 (11758188_x_at) / Fold change /veh KRT8 (11758188_x_at) / RFU NKD1 (11759106_at) / Fold change /veh NKD1 (11759106_at) / RFU SRD5A1 (11742802_a_at) / Fold change /veh SRD5A1 (11742802_a_at) / RFU TPSAB1 /// TPSB2 (11721975_s_at) / Fold change /veh TPSAB1 /// TPSB2 (11721975_s_at) / RFU GSTM3 (11746129_a_at) / Fold change /veh GSTM3 (11746129_a_at) / RFU IL23R (11737362_x_at) / Fold change /veh IL23R (11737362_x_at) / RFU TMEM51 (11727254_a_at) / Fold change /veh TMEM51 (11727254_a_at) / RFU PIWIL2 (11732686_x_at) / Fold change /veh PIWIL2 (11732686_x_at) / RFU ORM1 (11744905_x_at) / Fold change /veh ORM1 (11744905_x_at) / RFU CCDC152 (11743942_at) / Fold change /veh CCDC152 (11743942_at) / RFU ECM1 (11717891_a_at) / Fold change /veh ECM1 (11717891_a_at) / RFU IL23R (11748794_a_at) / Fold change /veh IL23R (11748794_a_at) / RFU TNFAIP8L3 (11732012_x_at) / Fold change /veh TNFAIP8L3 (11732012_x_at) / RFU MBOAT4 (11741988_at) / Fold change /veh MBOAT4 (11741988_at) / RFU 11764193_at / Fold change /veh 11764193_at / RFU TMEM53 (11763286_at) / Fold change /veh TMEM53 (11763286_at) / RFU MAGEB2 (11727129_at) / Fold change /veh MAGEB2 (11727129_at) / RFU TMEM200A (11744735_a_at) / Fold change /veh TMEM200A (11744735_a_at) / RFU CCDC152 (11751479_a_at) / Fold change /veh CCDC152 (11751479_a_at) / RFU FAM211A (11726209_a_at) / Fold change /veh FAM211A (11726209_a_at) / RFU RGS16 (11746705_a_at) / Fold change /veh RGS16 (11746705_a_at) / RFU VCAN (11755009_s_at) / Fold change /veh VCAN (11755009_s_at) / RFU RHOB (11743442_s_at) / Fold change /veh RHOB (11743442_s_at) / RFU RGS16 (11720943_a_at) / Fold change /veh RGS16 (11720943_a_at) / RFU RGS16 (11720944_at) / Fold change /veh RGS16 (11720944_at) / RFU, VPS4B / Fold change vs veh, VPS4B / RFU, CREB1 / Fold change vs veh, CREB1 / RFU, DNAJC13 / Fold change vs veh, DNAJC13 / RFU, GNAQ / Fold change vs veh, GNAQ / RFU, CDK5R1 / Fold change vs veh, CDK5R1 / RFU, ZRANB3 / Fold change vs veh, ZRANB3 / RFU, CUL4A / Fold change vs veh, CUL4A / RFU, CCNY / Fold change vs veh, CCNY / RFU, UFL1 / Fold change vs veh, UFL1 / RFU, COG3 / Fold change vs veh, COG3 / RFU, DIAPH2 / Fold change vs veh, DIAPH2 / RFU, SKA2 / Fold change vs veh, SKA2 / RFU, AFF3 / Fold change vs veh, AFF3 / RFU, LMF1 / Fold change vs veh, LMF1 / RFU, IPO11 / Fold change vs veh, IPO11 / RFU, DFFB / Fold change vs veh, DFFB / RFU, FOXP1 / Fold change vs veh, FOXP1 / RFU, CARD8 / Fold change vs veh, CARD8 / RFU, STRN3 / Fold change vs veh, STRN3 / RFU, ADK / Fold change vs veh, ADK / RFU, RASSF2 / Fold change vs veh, RASSF2 / RFU, WIPF1 / Fold change vs veh, WIPF1 / RFU, LARP1B / Fold change vs veh, LARP1B / RFU, RASA1 / Fold change vs veh, RASA1 / RFU, RB1 / Fold change vs veh, RB1 / RFU, PPFIA1 / Fold change vs veh, PPFIA1 / RFU, MAT2A / Fold change vs veh, MAT2A / RFU, CCT5 / Fold change vs veh, CCT5 / RFU, WDR92 / Fold change vs veh, WDR92 / RFU, CUX1 / Fold change vs veh, CUX1 / RFU, TTC7A / Fold change vs veh, TTC7A / RFU, TMEM135 / Fold change vs veh, TMEM135 / RFU, DEPTOR / Fold change vs veh, DEPTOR / RFU, CPM / Fold change vs veh, CPM / RFU, DNAJB6 / Fold change vs veh, DNAJB6 / RFU, CACNA2D3 / Fold change vs veh, CACNA2D3 / RFU, DTX4 / Fold change vs veh, DTX4 / RFU, TFCP2 / Fold change vs veh, TFCP2 / RFU, GMCL1 /// GMCL1P1 / Fold change vs veh, GMCL1 /// GMCL1P1 / RFU, AEBP2 / Fold change vs veh, AEBP2 / RFU, SNHG1 /// SNORD22 /// SNORD25 /// SNORD26 /// SNORD27 /// SNORD28 /// SNORD29 /// SNORD31 / Fold change vs veh, SNHG1 /// SNORD22 /// SNORD25 /// SNORD26 /// SNORD27 /// SNORD28 /// SNORD29 /// SNORD31 / Fold change (Aza/veh), C12orf56 (ProbeSet 11735607_a_at) / Fold change (ACY-1035/veh), C12orf56 (ProbeSet 11735607_a_at) / Fold change (Aza/veh), FGFR1OP (ProbeSet 11751329_s_at) / Fold change (ACY-1035/veh), FGFR1OP (ProbeSet 11751329_s_at) / Fold change (Aza/veh), VPS36 (ProbeSet 11739960_a_at) / Fold change (ACY-1035/veh), VPS36 (ProbeSet 11739960_a_at) / RFU SYPL1 (11715823_x_at) / Fold change /veh SYPL1 (11715823_x_at) / RFU IGFBP7 (11715501_s_at) / Fold change /veh IGFBP7 (11715501_s_at) / RFU REEP3 (11722064_at) / Fold change /veh REEP3 (11722064_at) / RFU IGLL1 (11728026_x_at) / Fold change /veh IGLL1 (11728026_x_at): dose or concentration left out as unconfirmed
# Conditions: MV-4-11 cells, 48 hours
compound,measurement,value
Nc1ncn([C@@H]2O[C@H](CO)[C@@H](O)[C@H]2O)c(=O)n1 [azacitidine],RFU SRD5A1 (11742802_a_at),51.32 RFU
